Reference: US7229991B2, “Substituted 5-aminomethyl-1H-pyrrole-2-carboxamides” (priority 2002, dated 2007)
pKi: −log10 of the molar value. Read-outs that look alike come from different tables or passages of the source.

Assays:
human μ opiate receptor = human μ opiate receptor (Homo sapiens, UniProt P35372); experiment: human μ opiate receptor binding assay with [3H]-naloxone, CHO-K1 membrane preparation; settings: for inhibition at 1 µM: read-out: Human ORm Nal inhibition [%]
Experimental: b) Method for Determining Affinity for the Human μ Opiate Receptor
Receptor affinity for the human μ opiate receptor was determined in a homogeneous batch in microtitre plates. To this end, dilution series of the particular substituted 5-aminomethyl-1H-pyrrole-2-carboxylic acid amide of the general formula I to be tested were incubated at room temperature for 90 minutes in a total volume of 250 μl with a receptor membrane preparation (15-40 μg of protein per 250 μl of incubation batch) of CHO—K1 cells, which express the human μ opiate receptor (RB—HOM receptor membrane preparation from NEN, Zaventem, Belgium) in the presence of 1 nmol/l of the radioactive ligand [^3H]-naloxone (NET719, from NEN, Zaventem, Belgium) and of 1 mg of WGA-SPA beads (wheat germ agglutinin SPA beads from Amersham/Pharmacia, Freiburg, Germany). The incubation buffer used was 50 mmol/l tris-HCl supplemented with 0.05 wt. % of sodium azide and with 0.06 wt. % of bovine serum albumin. 25 μmol/l of naloxone were additionally added to determine nonspecific binding. Once the ninety minute incubation time had elapsed, the microtitre plates were centrifuged off for 20 minutes at 1000 g and the radioactivity measured in a β-Counter (Microbeta-Trilux, from PerkinElmer Wallac, Freiburg, Germany). The percentage displacement of the radioactive ligand from its binding to the human μ opiate receptor was determined at a concentration of the compounds to be tested of 1 μmol/l and stated as percentage inhibition of specific binding. On the basis of the percentage displacement by different concentrations of the compounds to be tested of the general formula I, IC50 inhibition concentrations which bring about 50% displacement of the radioactive ligand were calculated. Ki values for the test substances were obtained by conversion using the Cheng-Prusoff equation.

5-HT uptake = biological target: T1, 5-HT uptake (Rattus norvegicus, UniProt P31652); experiment: 5-HT uptake inhibition in rat brain synaptosomes (medulla and pons); assay type: biochemical; design: concentration or dose not given beside the values; settings: conc. 10 (unit not given), [3H]-5-HT
T1 construct: Synaptosomes from rat brain regions (the “P2” fraction was used) were freshly isolated; from tissue; host or cells: rat brain synaptosomes (P2 fraction), medulla and pons
T1 sequence (P31652 whole entry): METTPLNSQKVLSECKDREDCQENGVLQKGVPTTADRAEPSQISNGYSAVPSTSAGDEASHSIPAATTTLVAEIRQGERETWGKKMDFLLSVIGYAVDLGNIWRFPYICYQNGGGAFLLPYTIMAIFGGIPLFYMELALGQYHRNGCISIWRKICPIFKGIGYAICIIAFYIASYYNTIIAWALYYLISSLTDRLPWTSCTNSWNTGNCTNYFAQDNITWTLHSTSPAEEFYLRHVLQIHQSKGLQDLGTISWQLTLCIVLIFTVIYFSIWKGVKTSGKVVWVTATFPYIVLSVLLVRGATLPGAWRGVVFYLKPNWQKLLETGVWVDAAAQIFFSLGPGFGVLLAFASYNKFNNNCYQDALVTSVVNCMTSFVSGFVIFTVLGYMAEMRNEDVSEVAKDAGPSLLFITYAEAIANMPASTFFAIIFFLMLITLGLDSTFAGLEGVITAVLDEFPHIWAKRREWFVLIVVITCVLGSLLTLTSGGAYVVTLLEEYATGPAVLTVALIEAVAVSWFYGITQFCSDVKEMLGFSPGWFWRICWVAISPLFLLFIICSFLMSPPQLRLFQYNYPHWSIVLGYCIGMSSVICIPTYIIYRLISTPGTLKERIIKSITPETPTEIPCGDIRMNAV
Source text: (§1) c) Method for Determining Noradrenalin and the 5-HT Uptake Inhibition:
(§2) Synaptosomes from rat brain regions (the “P2” fraction was used) were freshly isolated for in vitro studies, as described in the publication “The isolation of nerve endings from brain” by E. G. Gray and V. P. Whittaker, J. Anatomy 76, pages 79-88, 1962. The corresponding literature description is hereby introduced as a reference and is deemed to be part of the disclosure.
(§3) The tissue (hypothalamus for the determination of noradrenalin uptake inhibition and medulla and pons for the determination of 5-HT uptake inhibition) was homogenised in ice-cooled 0.32 M sucrose (100 mg of tissue/1 mL) in a glass homogeniser with teflon pestle using five complete up and down strokes at 840 revolutions/minute.
(§4) The homogenate was centrifuged at 4° C. for 10 minutes at 1000 g. After subsequent centrifugation at 17000 g for 55 minutes, the synaptosomes (P2 fraction) were obtained, which were resuspended in 0.32 M glucose (0.5 mL/100 mg of original weight).
(§5) The particular uptake was measured in a 96-well microtitre plate. The volume was 250 μl and the incubation proceeded at room temperature (approx. 20-25° C.) under an O2 atmosphere.
(§6) The incubation time was 7.5 minutes for [^3H]-NA and 5 minutes for [^3H]-5-HT. The 96 samples were then filtered through a Unifilter GF/B® microtitre plate (Packard) and washed with […] of incubated buffer using a “Brabdel MPXRI-96T Cell-Harvester”. The Unifilter GF/B plate was dried for 1 hour at 55° C. The plate was then sealed with a Back seal® (Packard) and 35 μl of scintillation fluid were added per well (Ultima gold®, Packard). After sealing with a top seal® (Packard) and establishment of equilibrium (around 5 hours), radioactivity was determined in a “Trilux 1450 Microbeta” (Wallac).
(§7) The quantity of protein used in the above determination corresponded to the values known from the literature, as for example described in “Protein measurement with the folin phenol reagent”, Lowry et al., J. Biol. Chem., 193, 265-275, 1951. A detailed description of the method may also be found in the literature, for example in M.Ch. Frink, H.-H. Hennies, W. Engelberger, M. Haurand and B. Wilffert (1996) Arzneim.-Forsch./Drug Res. 46 (III), 11, 1029-1036. The corresponding literature descriptions are hereby introduced as a reference and are deemed to be part of the disclosure.

NA transporter = biological target: T2, NA transporter (Rattus norvegicus, UniProt Q63380); experiment: noradrenalin uptake inhibition in rat brain synaptosomes (hypothalamus); assay type: biochemical; design: concentration or dose not given beside the values; settings: conc. 10 (unit not given), [3H]-NA
T2 construct: Synaptosomes from rat brain regions (the “P2” fraction was used) were freshly isolated; from tissue; host or cells: rat brain synaptosomes (P2 fraction), hypothalamus
T2 sequence (Q63380 1-617): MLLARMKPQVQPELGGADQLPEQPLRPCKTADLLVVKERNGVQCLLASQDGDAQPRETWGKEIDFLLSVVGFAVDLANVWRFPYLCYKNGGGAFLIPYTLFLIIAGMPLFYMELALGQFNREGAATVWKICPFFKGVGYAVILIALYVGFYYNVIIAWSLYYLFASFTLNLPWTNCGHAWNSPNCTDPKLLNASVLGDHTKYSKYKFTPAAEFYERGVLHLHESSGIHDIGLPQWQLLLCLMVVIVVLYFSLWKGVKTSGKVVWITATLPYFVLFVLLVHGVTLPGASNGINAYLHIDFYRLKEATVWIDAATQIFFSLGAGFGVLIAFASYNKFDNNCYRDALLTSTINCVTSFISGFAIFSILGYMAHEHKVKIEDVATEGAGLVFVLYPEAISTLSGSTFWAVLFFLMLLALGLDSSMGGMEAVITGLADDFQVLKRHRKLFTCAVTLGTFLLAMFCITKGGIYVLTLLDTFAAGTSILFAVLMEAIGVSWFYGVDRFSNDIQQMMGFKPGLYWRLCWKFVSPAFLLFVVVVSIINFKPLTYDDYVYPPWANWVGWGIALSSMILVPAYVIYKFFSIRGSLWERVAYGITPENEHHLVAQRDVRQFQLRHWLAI
Source text: as §1, §2, §3, §4, §5, §6
The following characteristics were determined for the NA transporter: NAuptake: Km=0.32±0.11 μM
as §7

[1] = [3H]-naloxone, from IC50 by the Cheng-Prusoff equation, read-out: Human ORm Nal Ki

human μ opiate receptor, sequence (P35372 whole entry): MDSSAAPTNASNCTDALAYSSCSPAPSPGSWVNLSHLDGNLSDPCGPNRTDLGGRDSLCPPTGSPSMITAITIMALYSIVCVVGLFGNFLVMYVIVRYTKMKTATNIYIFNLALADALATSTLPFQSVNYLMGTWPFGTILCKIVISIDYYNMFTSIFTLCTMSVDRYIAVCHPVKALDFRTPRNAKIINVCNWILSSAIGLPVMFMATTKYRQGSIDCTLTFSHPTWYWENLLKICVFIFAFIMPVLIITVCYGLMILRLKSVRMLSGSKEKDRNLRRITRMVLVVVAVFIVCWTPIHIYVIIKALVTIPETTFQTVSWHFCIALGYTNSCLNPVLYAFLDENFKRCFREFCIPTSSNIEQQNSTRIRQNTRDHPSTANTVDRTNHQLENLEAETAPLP

Structure (SMILES) | pKi (human μ opiate receptor) | inhibition at 1 µM (human μ opiate receptor) | 5-HT uptake inhibition [%] conc. 10 (5-HT uptake) | Noradrenalin uptake inhibition [%] conc. 10 (NA transporter) | pKi (human μ opiate receptor; [1])
CN(C)C(c1ccc(F)cc1)c1ccc(C(=O)NC2CCCCC2)n1C.Cl (centres unmarked) [Example 1, 5-[Dimethylamino-(4-fluoro-phenyl)-methyl]-1-methyl-1H-pyrrole-2-carboxylic acid cyclohexylamide hydrochloride] | 6.80 | 62% | 57% | 80% | 
CCCCNC(=O)c1ccc(C(c2ccc(F)cc2)N(C)C)n1C.Cl (centres unmarked) [Example 2, 5-[Dimethylamino-(4-fluoro-phenyl)-methyl]-1-methyl-1H-pyrrole-2-carboxylic acid butylamide hydrochloride] |  | 49% | 52% | 72% | 6.44
CN(C)C(c1ccc(F)cc1)c1ccc(C(=O)N2CCCC2)n1C.Cl (centres unmarked) [Example 3, {5-[Dimethylamino-(4-fluoro-phenyl)-methyl]-1-methyl-1H-pyrrol-2-yl}-pyrrolidin-1-yl-methanone hydrochloride] |  |  |  | 38% | 
CN(C)C(c1ccc(Br)cc1)c1ccc(C(=O)NC2CCCCC2)n1C.Cl (centres unmarked) [Example 4, 5-[Dimethylamino-(4-bromo-phenyl)-methyl]-1-methyl-1H-pyrrole-2-carboxylic acid cyclohexylamide hydrochloride] |  | 80% | 72% | 93% | 6.10
CCCCNC(=O)c1ccc(C(c2ccc(Br)cc2)N(C)C)n1C.Cl (centres unmarked) [Example 5, 5-[Dimethylamino-(4-bromo-phenyl)-methyl]-1-methyl-1H-pyrrole-2-carboxylic acid butylamide hydrochloride] |  | 62% | 57% | 86% | 
CN(C)C(c1ccc(Br)cc1)c1ccc(C(=O)N2CCCC2)n1C.Cl (centres unmarked) [Example 6, {5-[(4-Bromo-phenyl)-dimethylamino-methyl]-1-methyl-1H-pyrrol-2-yl)-pyrrolidin-1-yl-methanone hydrochloride] |  |  | 51% | 83% | 
CN(C)C(c1ccc(Br)cc1)c1ccc(C(=O)NCCc2ccccc2)n1C.Cl (centres unmarked) [Example 7, 5-[(4-Bromo-phenyl)-dimethylamino-methyl]-1-methyl-1H-pyrrole-2-carboxylic acid phenethylamide hydrochloride] | 6.00 | 65% | 93% | 95% | 
CN(C)C(c1ccc(Br)cc1)c1ccc(C(=O)N2CCOCC2)n1C.Cl (centres unmarked) [Example 8, {5-[(4-Bromo-phenyl)-dimethylamino-methyl]-1-methyl-1H-pyrrol-2-yl}-morpholin-4-yl-methanone hydrochloride] |  |  | 79% | 43% | 
CN(C)C(c1ccccc1)c1ccc(C(=O)NC2CCCCC2)n1C.Cl (centres unmarked) [Example 9, 5-(Dimethylamino-phenyl-methyl)-1-methyl-1H-pyrrole-2-carboxylic acid cyclohexylamide hydrochloride] |  | 76% |  | 70% | 
CCCCNC(=O)c1ccc(C(c2ccccc2)N(C)C)n1C.Cl (centres unmarked) [Example 10, 5-(Dimethylamino-phenyl-methyl)-1-methyl-1H-pyrrole-2-carboxylic acid butylamide hydrochloride] |  |  |  | 52% | 
CN(C)C(c1ccccc1)c1ccc(C(=O)N2CCCC2)n1C.Cl (centres unmarked) [Example 11, [5-(Dimethylamino-phenyl-methyl)-1-methyl-1H-pyrrol-2-yl]-pyrrolidin-1-yl-methanone hydrochloride] |  | 33% | 54% |  | 
